Values after ≈ are worked out from the molar mass of the structure shown. Read-outs that look alike come from different tables or passages of the source.
How the values were obtained:
Assay type in all cases: cell-based
[1] = tested on: E. faecalis (Str-15) ATCC 29212; experiment: MIC in broth against E. faecalis; conditions: Enterococcus faecalis, ATCC29212
Method: (§1) The antimicrobial efficacy of twenty-five antimicrobial polymers (and Erythromycin) was evaluated using an MIC assay. […] Overall, the antimicrobial polymer-containing compositions performed comparably well, or better, against the pathogens, as compared to Erythromycin (ERY).

[2] = tested on: S. pneumoniae (Str-53) ATCC 49619; experiment: MIC in broth against S. pneumoniae; conditions: Streptococcus pneumoniae, ATCC49619
Method: as §1

Mycoplasma bovis = experiment: organism not typed
[3] = tested on: Actinobacillus pleuropneumoniae; experiment: MIC in broth against Actinobacillus pleuropneumoniae
Method: (§2) The antimicrobial efficacy of twenty-five antimicrobial polymers (and Erythromycin) was evaluated using an MIC assay. For each study, a doubling dilution concentration of each antimicrobial polymer was prepared at 2× the final concentration range (0.12 to 16 μg/mL), and 100 μL of the API-null formulation was dispensed into the negative control wells. Overall, the antimicrobial polymer-containing compositions performed comparably well, or better, against the pathogens, as compared to Erythromycin (ERY).

Enterobacter species = experiment: MIC in broth against Enterobacter species
Method: as §2

Escherichia coli = experiment: MIC in broth against Escherichia coli
Method: as §2

Klebsiella species = experiment: MIC in broth against Klebsiella species
Method: as §2

CC[C@H]1OC(=O)[C@H](C)[C@@H](O[C@H]2C[C@@](C)(OC)[C@@H](O)[C@H](C)O2)[C@H](C)[C@@H](O[C@@H]2O[C@H](C)C[C@H](N(C)C)[C@H]2O)[C@](C)(O)C[C@@H](C)C(=O)[C@H](C)[C@@H](O)[C@]1(C)O [Ery, Erythromycin]
MIC [1]: 2 µg/mL (≈ 2.73 µM)
MIC [2]: 0.06 µg/mL (≈ 0.0818 µM)
MIC (Mycoplasma bovis): 4 µg/mL (≈ 5.45 µM)
MIC (Mycoplasma bovis; Mycoplasmopsis bovis, isolate # 248 (mastitis), read-out: MIC against Mycoplasma bovis): > 8 µg/mL
MIC (Mycoplasma bovis; Mycoplasmopsis bovis, isolate # 249 (mastitis), read-out: MIC against Mycoplasma bovis): > 8 µg/mL
MIC (Mycoplasma bovis; Mycoplasmopsis bovis, isolate # 250 (mastitis), read-out: MIC against Mycoplasma bovis): > 8 µg/mL
MIC (Mycoplasma bovis; Mycoplasmopsis bovis, isolate # 251 (mastitis), read-out: MIC against Mycoplasma bovis): > 8 µg/mL
MIC (Mycoplasma bovis; Mycoplasmopsis bovis, isolate # 252 (mastitis), read-out: MIC against Mycoplasma bovis): > 8 µg/mL
MIC (Mycoplasma bovis; Mycoplasmopsis bovis, isolate # 253 (mastitis), read-out: MIC against Mycoplasma bovis): 4 µg/mL (≈ 5.45 µM)
MIC (Mycoplasma bovis; Mycoplasmopsis bovis, isolate # 254 (mastitis), read-out: MIC against Mycoplasma bovis): > 8 µg/mL
MIC (Mycoplasma bovis; Mycoplasmopsis bovis, isolate # 255 (mastitis), read-out: MIC against Mycoplasma bovis): > 8 µg/mL
MIC (Mycoplasma bovis; Mycoplasmopsis bovis, isolate # 256 (mastitis), read-out: MIC against Mycoplasma bovis): > 8 µg/mL
MIC (Mycoplasma bovis; Mycoplasmopsis bovis, isolate # 257 (mastitis), read-out: MIC against Mycoplasma bovis): > 8 µg/mL
MIC ([3]; A. pleuro. (AC-1) ATTC 27090, read-out: MIC): 8 µg/mL (≈ 10.9 µM)
MIC ([3]; isolate # 237 (porcine lung, SRD), read-out: MIC against Actinobacillus pleuropneumoniae): 2 µg/mL (≈ 2.73 µM)
MIC ([3]; isolates # 228-231, 235 (porcine lung, SRD), read-out: MIC against Actinobacillus pleuropneumoniae): 4 µg/mL (≈ 5.45 µM)
MIC ([3]; isolates # 232-236 (porcine lung, SRD), read-out: MIC against Actinobacillus pleuropneumoniae): 8 µg/mL (≈ 10.9 µM)
MIC (Enterobacter species; Enterobacter, isolate # 26 (mastitis)): > 8 µg/mL
MIC against Enterobacter species (Enterobacter species; isolate # 21 (mastitis)): >8 µg/mL
MIC against Enterobacter species (Enterobacter species; isolate # 22 (mastitis)): >8 µg/mL
MIC against Enterobacter species (Enterobacter species; isolate # 23 (mastitis)): >8 µg/mL
MIC against Enterobacter species (Enterobacter species; isolate # 24 (mastitis)): >8 µg/mL
MIC against Enterobacter species (Enterobacter species; isolate # 25 (mastitis)): >8 µg/mL
MIC against Enterobacter species (Enterobacter species; isolate # 27 (mastitis)): >8 µg/mL
MIC (Escherichia coli; isolate # 1 (mastitis)): 2 µg/mL (≈ 2.73 µM)
MIC (Escherichia coli; isolate # 2 (mastitis)): > 8 µg/mL
MIC (Escherichia coli; isolate # 3 (mastitis)): > 8 µg/mL
MIC (Escherichia coli; isolate # 4 (mastitis)): > 8 µg/mL
MIC (Escherichia coli; isolate # 5 (mastitis)): > 8 µg/mL
MIC (Escherichia coli; isolate # 6 (mastitis)): > 8 µg/mL
MIC (Escherichia coli; isolate # 7 (mastitis)): > 8 µg/mL
MIC (Escherichia coli; isolate # 8 (mastitis)): > 8 µg/mL
MIC (Escherichia coli; isolate # 9 (mastitis)): > 8 µg/mL
MIC (Escherichia coli; isolate # 10 (mastitis)): > 8 µg/mL
MIC (Escherichia coli; isolate # 11 (canine wound)): > 8 µg/mL
MIC (Escherichia coli; isolate # 12 (canine wound)): > 8 µg/mL
MIC (Escherichia coli; isolate # 13 (canine wound)): > 8 µg/mL
MIC (Escherichia coli; isolate # 14 (canine wound)): > 8 µg/mL
MIC (Escherichia coli; isolate # 15 (canine wound)): > 8 µg/mL
MIC (Escherichia coli; isolate # 16 (canine wound)): > 8 µg/mL
MIC (Escherichia coli; isolate # 17 (canine wound)): > 8 µg/mL
MIC (Escherichia coli; isolate # 18 (canine wound)): > 8 µg/mL
MIC (Escherichia coli; isolate # 19 (canine wound)): > 8 µg/mL
MIC (Escherichia coli; isolate # 20 (canine wound)): > 8 µg/mL
MIC (Klebsiella species; Klebsiella, isolate # 28): > 8 µg/mL
MIC against Klebsiella species (Klebsiella species; isolate # 29): >8 µg/mL
MIC against Klebsiella species (Klebsiella species; isolate # 30): >8 µg/mL
MIC against Klebsiella species (Klebsiella species; isolate # 31): >8 µg/mL
MIC against Klebsiella species (Klebsiella species; isolate # 32): >8 µg/mL
MIC against Klebsiella species (Klebsiella species; isolate # 33): >8 µg/mL
MIC against Klebsiella species (Klebsiella species; isolate # 34): >8 µg/mL
MIC against Klebsiella species (Klebsiella species; isolate # 35): >8 µg/mL
MIC against Klebsiella species (Klebsiella species; isolate # 36): >8 µg/mL
MIC against Klebsiella species (Klebsiella species; isolate # 37): >8 µg/mL
MIC against Klebsiella species (Klebsiella species; isolate # 38): >8 µg/mL
MIC against Klebsiella species (Klebsiella species; isolate # 39): >8 µg/mL
MIC against Klebsiella species (Klebsiella species; isolate # 40): >8 µg/mL
MIC against Klebsiella species (Klebsiella species; isolate # 41): >8 µg/mL
MIC against Klebsiella species (Klebsiella species; isolate # 42): >8 µg/mL
MIC against Klebsiella species (Klebsiella species; isolate # 43): >8 µg/mL
MIC against Klebsiella species (Klebsiella species; isolate # 44): >8 µg/mL
MIC against Klebsiella species (Klebsiella species; isolate # 45): >8 µg/mL

From patent publication US10131744B2, “Antimicrobial polyamide compositions and mastitis treatment” (priority 2013, dated 2018)
